In ChEMBL document CHEMBL1201862, “PubChem BioAssay data set” (2004):
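Each compound was tested at five concentrations against cells in 96-well plates for 48 hours. Abbreviation: GI50, concentration required for 50% inhibition of growth.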 Activity calls are given as the source filed them. Cut-off read from the data, not from the text of the source: active = GI50 up to about 1.1 µM and inactive = higher.

What was measured:
Test in all cases: NCI tumour cell line growth inhibition, 48 h
OVCAR-3 = system: OVCAR-3
OVCAR-4 = system: OVCAR-4
SW-620 = system: SW-620
UO-31 = system: UO-31
SK-MEL-28 = system: SK-MEL-28
NCI-H460 = system: NCI-H460
SF-539 = system: SF-539
UACC-62 = system: UACC-62
U-251 = system: U-251
KM12 = system: KM12
SK-OV-3 = system: SK-OV-3
SNB-75 = system: SNB-75
LOX IMVI = system: LOX IMVI
SF-295 = system: SF-295
HCC 2998 = system: HCC 2998
SNB-19 = system: SNB-19
HL-60 = system: HL-60

Measured: GI50

O=C1/C(=C/c2ccccc2)CCCC/C1=C\c1ccccc1
inactive: OVCAR-3 > 100 µM | OVCAR-4 75 µM | SW-620 58.5 µM | UO-31 55 µM | SK-MEL-28 > 100 µM | NCI-H460 51.3 µM | SF-539 > 100 µM | UACC-62 > 100 µM | U-251 62.2 µM | KM12 41.2 µM | SK-OV-3 > 100 µM | SNB-75 66.7 µM | LOX IMVI 53.7 µM | SF-295 72.3 µM | HCC 2998 48.5 µM | SNB-19 > 100 µM

c1cc2c(cc1C1OCC3C(c4ccc5c(c4)OCO5)OCC13)OCO2 (stereo not drawn)
inactive: OVCAR-3 84.1 µM | OVCAR-4 > 100 µM | SW-620 > 100 µM | UO-31 57 µM | SK-MEL-28 64.7 µM | NCI-H460 75.3 µM | SF-539 > 100 µM | UACC-62 50 µM | U-251 83 µM | KM12 58.9 µM | SK-OV-3 > 100 µM | SNB-75 50.8 µM | LOX IMVI 73.1 µM | SF-295 87.1 µM | HCC 2998 71.1 µM | SNB-19 > 100 µM

COC1=C(OC)CCC(/C(C#N)=C/c2ccc(OC)c(OC)c2)=C1
inactive: OVCAR-3 > 100 µM | OVCAR-4 > 100 µM | SW-620 > 100 µM | UO-31 36.1 µM | SK-MEL-28 > 100 µM | NCI-H460 > 100 µM | SF-539 59.3 µM | UACC-62 > 100 µM | U-251 34.5 µM | KM12 > 100 µM | SK-OV-3 26.4 µM | SNB-75 16 µM | LOX IMVI > 100 µM | SF-295 15.9 µM | HCC 2998 > 100 µM

COC(=O)CC(c1ccccc1)C1(c2ccccc2)SCCS1 (stereo not drawn)
inactive: OVCAR-3 55.1 µM | SW-620 232 µM | SK-MEL-28 > 290 µM | NCI-H460 261 µM | SF-539 > 290 µM | UACC-62 142 µM | U-251 > 290 µM | KM12 108 µM | SK-OV-3 > 290 µM | LOX IMVI 130 µM | SF-295 > 290 µM | HCC 2998 > 290 µM | HL-60 141 µM | SNB-19 > 290 µM

CCCCN(CCCC)C(=O)/C(CC(=O)c1cccc2ccccc12)=N\NC(=O)c1cc2ccccc2cc1O
inactive: OVCAR-3 14.4 µM | OVCAR-4 25.6 µM | SW-620 32 µM | UO-31 10.1 µM | SK-MEL-28 26 µM | NCI-H460 18.4 µM | UACC-62 6.85 µM | U-251 19.3 µM | KM12 24.8 µM | SNB-75 13.4 µM | LOX IMVI 13 µM | SF-295 18.3 µM | HCC 2998 16.3 µM | HL-60 3.2 µM | SNB-19 26.1 µM

O=C1CCCCCCCCCCC(=O)C2CCOCCOCCOCCC1Cc1cccc(n1)C2
inactive: OVCAR-3 40.6 µM | OVCAR-4 51.5 µM | SW-620 > 100 µM | UO-31 42.1 µM | SK-MEL-28 > 100 µM | NCI-H460 99.1 µM | SF-539 > 100 µM | UACC-62 > 100 µM | U-251 > 100 µM | KM12 59.3 µM | SK-OV-3 > 100 µM | SNB-75 49.3 µM | LOX IMVI > 100 µM | SF-295 76.7 µM | HCC 2998 46.1 µM | SNB-19 > 100 µM

CC1(C)OC(=O)C(c2cccs2)C(=O)O1
inactive: OVCAR-3 > 100 µM | OVCAR-4 > 100 µM | SW-620 > 100 µM | UO-31 > 100 µM | SK-MEL-28 > 100 µM | NCI-H460 > 100 µM | SF-539 > 100 µM | UACC-62 > 100 µM | U-251 > 100 µM | KM12 > 100 µM | SK-OV-3 > 100 µM | SNB-75 > 100 µM | LOX IMVI > 100 µM | SF-295 > 100 µM | HCC 2998 > 100 µM | SNB-19 > 100 µM
